Like-named read-outs stand apart in the source and are kept apart here.
Tested on: mixture of Pseudomonas aeruginosa, Klebsiella pneumoniae, Staphylococcus aureus, and Bacillus subtilis
Assay: Growth inhibition assay (microtiter plate-based synergy assay)
Format: cell-based
Conditions: 24 h; for concentration needed to prevent at least 90% of the growth (I90) of the microbial consortium: active used alone
From the text: Details of each assay are provided below.
Growth Inhibition Assay. […] Regardless of the mechanism of action, the impact of a biocide (or combination of biocides) can be measured over time on the basis of an increase in the size of the community.
The assay measures the efficacy of one or more biocides at preventing growth of a consortium of bacteria in a dilute mineral salts medium. The medium contains (in mg/l) the following components: FeCl3.6H2O (1); CaCl2.2H2O (10); MgSO4.7H2O (22.5); (NH4)2SO4 (40); KH2PO4 (10); K2HPO4 (25.5); Yeast Extract (10); and glucose (100). After all components are added to deionized water, the pH of the medium is adjusted to 7.5. Following filter sterilization, aliquots are dispensed in 100 ul quantities to sterile microtiter plate wells. Dilutions of 2,2-dibromomalonamide (“DBMAL”) and/or “Biocide B” are then added to the microtiter plate. After preparing the combinations of actives as illustrated below, each well is inoculated with 100 μl of a cell suspension containing ca. 1×10^6 cells per milliliter of a mixture of Pseudomonas aeruginosa, Klebsiella pneumoniae, Staphylococcus aureus, and Bacillus subtilis. The final total volume of medium in each well is 300 μl. Once prepared as described herein, the concentration of each active ranges from 25 ppm to 0.195 ppm as illustrated in Table 1. The resulting matrix allows testing of eight concentrations of each active and 64 combinations of actives in the ratios (of actives).
Controls (not shown) contain the medium with no biocide added. After preparing the combinations of actives as illustrated above, each well is inoculated with 100 μl of a cell suspension containing ca. 1×10^6 cells per milliliter of a mixture of Pseudomonas aeruginosa, Klebsiella pneumoniae, Staphylococcus aureus, and Bacillus subtilis. The final total volume of medium in each well is 300 μl.
Immediately after the microtiter plates are prepared, the optical density (OD) readings for each well is measured at 580 nm and the plates are then incubated at 37° C. for 24 hr. After the incubation period, the plates are gently agitated before OD580 values are collected. The OD580 values at T0 are subtracted from T24 values to determine the total amount of growth (or lack thereof) that occurs. These values are used to calculate the percent inhibition of growth caused by the presence of each biocide and each of the 64 combinations.
where • CDBMAL: Concentration of DBMAL required to inhibit ˜90% of bacterial growth when used alone • CB: Concentration of biocide (B) required to inhibit ˜90% of bacterial growth when used alone.
MDBMAL: Concentration of DBMAL required to inhibit ˜90% of bacterial growth when used in combination with biocide (B).
MB: Concentration of biocide (B) required to inhibit ˜90% of bacterial growth when used in combination with DBMAL
The SI values are interpreted as follows:
• SI<1: Synergistic combination • SI=1: Additive combination • SI>1: Antagonistic combination
In the Examples below, the amounts of biocides in the solution are measured in mg per liter of solution (mg/l). Since solution densities are approximately 1.00, the mg/l measurement corresponds to weight ppm. Both units may therefore be used interchangeably in the Examples.

[1] = read-out: % Inhibition of growth by SOPP

SMILES	inhibition at […] (DBMAL alone 0.19 mg/l, OD580) [%]	inhibition at 0.39 µg/mL (DBMAL alone 0.39 mg/l, OD580) [%]	inhibition at 0.78 µg/mL (DBMAL alone 0.78 mg/l, OD580, read-out: % Inhibition of growth by DBMAL) [%]	inhibition at 1.56 µg/mL (DBMAL alone 1.56 mg/l, OD580, read-out: % Inhibition of growth by DBMAL) [%]	inhibition at 3.13 µg/mL (DBMAL alone 3.13 mg/l, OD580, read-out: % Inhibition of growth by DBMAL) [%]	inhibition at 6.25 µg/mL (DBMAL alone 6.25 mg/l, OD580, read-out: % Inhibition of growth by DBMAL) [%]	inhibition at 12.5 µg/mL (DBMAL alone 12.5 mg/l, OD580, read-out: % Inhibition of growth by DBMAL) [%]	inhibition at 25 µg/mL (DBMAL alone 25.0 mg/l, OD580, read-out: % Inhibition of growth by DBMAL) [%]	concentration needed to prevent at least 90% of the growth (I90) of the microbial consortium [mg/L]	inhibition at 0.78 µg/mL [1] [%]	inhibition at 1.56 µg/mL [1] [%]	inhibition at 3.13 µg/mL [1] [%]	inhibition at 6.25 µg/mL [1] [%]	inhibition at 12.5 µg/mL [1] [%]	inhibition at 25 µg/mL [1] [%]	inhibition at 50 µg/mL [1] [%]
NC(=O)C(Br)(Br)C(N)=O [DBMAL, 2,2-dibromomalonamide]	0	4	7	0	0	49	100	100	12.5	–	–	–	–	–	–	–
Oc1ccccc1-c1ccccc1.[Na] [SOPP, sodium ortho-phenylphenol]	–	–	–	–	–	–	–	–	500	0	17	0	37	68	98	98

— patent publication US8598234B2, “Compositions of dibromomalonamide and their use as biocides” (Dow Global Technologies LLC, priority 2009, dated 2013)
